The values below are quoted from earlier work in paper PMC11768433 (Viruses, 2024).

Like-named read-outs stand apart in the source and are kept apart here. Bounds are passed on as bounds.

Series [1] has as its system Vero cells. Further details: method as in Ref.35216177. To be noted: ref Ref.35216177.
The next series deals with SARS-CoV-2. Further details: method as in Ref.35216177. To be noted: SARS-CoV-2 replication, Vero cells; ref Ref.35216177.
The subject of series [2] is influenza virus(H1N1,VR-1894). Details: method as in Ref.35216177. To be noted: influenza H1N1 VR-1894 replication, MDKC cells; ref Ref.35216177.
In a further series the test system is HSV-1. Further details: method as in Ref.35216177. The conditions noted are these: HSV-1 replication, Vero cells; ref Ref.35216177.
The next series has as its system HCoV-229E. Details: method as in Ref.35216177. The conditions noted are these: HCoV-229E replication, Vero cells; ref Ref.35216177.
A further series concerns HSV-2. Further details: method as in Ref.35216177. To be noted: HSV-2 replication, Vero cells; ref Ref.35216177.
The next series deals with HCoV-OC43. Further details: method as in Ref.35216177. The conditions noted are these: HCoV-OC43 replication, Vero cells; ref Ref.35216177.
A further series deals with TZM-bl cell. Further details: method as in Ref.30089693. The conditions noted are these: ref Ref.30089693.
Another series concerns PBMC. The conditions noted are these: PBMC; ref Ref.30089693.
The subject of the next series is P4-CCR5 cells. Further details: method as in Ref.17448989. The conditions noted are these: up to 1000 µM, ref Ref.17448989.
The test system of a further series is P4 cells. Further details: method as in Ref.12054767. The conditions noted are these: MTT assay, peptide concentrations higher than 100 μM, ref Ref.12054767.
In series [3] the test system is Feline immunodeficiency virus (FIV). The conditions noted are these: FIV replication, CrFK cells, at 16 µg/ml; ref Ref.8661378.
Series [4] has as its system Human parainfluenza viruse 3(HPIV 3). Further details: method as in Ref.28344321. The conditions noted are these: HPIV 3 infection, Vero cells; ref Ref.28344321.
Series [5] deals with Vero cells. Further details: method as in Ref.28344321. The conditions noted are these: ref Ref.28344321.

As for “CFVPWFSKFlXRIL [DRAVPe00391, DRAVP database entry, TL peptide]”, in the series on Vero cells [1], the CC50 entry was “[Ref.35216177]Vero cells:CC50>100.00 μM”. The values for the IC90 (in the series on SARS-CoV-2; in [2]; in the series on HSV-1) were 1.89 µM, 5.89 µM and 2.19 µM, respectively.
Take “CGGFVPWFSKFlXRIL [DRAVPe00392, DRAVP database entry, TL peptide]”: the CC50 result with Vero cells [1] is “[Ref.35216177]Vero cells:CC50>100.00 μM”. For the same substance, the results for the IC90 (with SARS-CoV-2; in series [2]; in the series with HSV-1) were 10.2 µM, 9.9 µM and 8.21 µM, respectively.
In the case of “FVPWFSKFlGRIL [DRAVPe00377, DRAVP database entry, TL peptide]”, the IC90 in the series with HCoV-229E is 30.1 µM; in the series on HSV-2, 16.7 µM; in the series on SARS-CoV-2, 12.1 µM; in the series on HCoV-OC43 it was 15 µM; in the series with HSV-1, 18.7 µM. Besides, the CC50 with Vero cells [1] is 42.18 µM.
Consider “FVPWFSKFlPRIL [DRAVPe00378, DRAVP database entry, TL peptide]”, for which the CC50 in the series with Vero cells [1] was 56.52 µM. Also, the IC90 in the series with HSV-2 was 19.2 µM; in the series with SARS-CoV-2, 14 µM; in the series on HCoV-OC43 it was 24.1 µM; with HSV-1, 18.8 µM.
As to “FVPWFSKFlWRIL [DRAVPe00385, DRAVP database entry, TL peptide]”, the concentration for an effect of 90% (IC90) in the series with HCoV-229E was 50 µM; in the series on HSV-2, 12.5 µM; with SARS-CoV-2 it was 27.7 µM; in the series with HCoV-OC43, 24.2 µM; with HSV-1, 8.25 µM. For the same substance, the CC50 in the series on Vero cells [1] was 35.47 µM.
For the substance “FVPWFSKFlXRIL [DRAVPe00380, DRAVP database entry, TL peptide]”, the IC90 with HCoV-229E is greater than 50 µM; in the series on HSV-2, 19 µM; in the series on SARS-CoV-2 it was 25 µM; in the series with HCoV-OC43, 27.7 µM; in the series with HSV-1 it was 15.9 µM. Also, the CC50 in the series on Vero cells [1] is 60.90 µM.
Consider “FVPWFSKFlXRIL [DRAVPe00396, DRAVP database entry, TL peptide]”, for which the CC50 entry in the series on Vero cells [1] was “[Ref.35216177]Vero cells:CC50>100.00 μM”. Besides, the IC90 with SARS-CoV-2 was 6.96 µM; in series [2], 7.11 µM; in the series on HSV-1, 4.96 µM.
With “FVPWFSKFlXRILC [DRAVPe00389, DRAVP database entry, TL peptide]”, the CC50 result in the series on Vero cells [1] is “[Ref.35216177]Vero cells:CC50>100.00 μM”. Moreover, the results for the IC90 (with SARS-CoV-2; in series [2]; with HSV-1) were 12 µM, 10 µM and 11.1 µM, respectively.
On to “FVPWFSKFlXRILGGC [DRAVPe00390, DRAVP database entry, TL peptide]”, for which the CC50 result in the series on Vero cells [1] is “[Ref.35216177]Vero cells:CC50>100.00 μM”. In addition, the IC90 was 50 µM with SARS-CoV-2, 49.9 µM in series [2] and 48 µM in the series on HSV-1.
With “FVPWFSKFlpRIL [DRAVPe00379, DRAVP database entry, TL peptide]”, in the series with Vero cells [1], the CC50 result is “[Ref.35216177]Vero cells:CC50>100 μM”.
Regarding “FVPWFSKFlwRIL [DRAVPe00386, DRAVP database entry, TL peptide]”, the IC90 with HCoV-229E is 50 µM; in the series with HSV-2, 9.76 µM; in the series on SARS-CoV-2, 14.8 µM; in the series on HCoV-OC43, 17.4 µM; in the series on HSV-1, 7.89 µM. In addition, the CC50 with Vero cells [1] is 24.12 µM.
In the case of “FVPWFSKFlxRIL [DRAVPe00382, DRAVP database entry, TL peptide]”, the IC90 is greater than 50 µM in the series with HCoV-229E; 11.9 µM in the series with HSV-2; 17.4 µM in the series on SARS-CoV-2; 24.7 µM in the series with HCoV-OC43; 12.8 µM in the series on HSV-1. Also, the CC50 in the series on Vero cells [1] is 32.16 µM.
As for “FVQWFSKFLGRIL [DRAVPe00376, DRAVP database entry, TL peptide]”, the CC50 with Vero cells [1] was 19.61 µM. Besides, the IC90 in the series on HSV-2 is 16 µM; in the series with HSV-1, 15.7 µM.
Consider IEELLKKAEEQQKKNEEELKKLEX [DRAVPe00660], for which the CC50 is 256.23 µM in the series with TZM-bl cell and 49.95 ± 2.97 µM with PBMC.
As to KVINPEPIVEPFMSKPFALF [DRAVPe00230], in the series with P4-CCR5 cells, the “cytotoxicity” value is “[Ref.17448989]No cytotoxicity against P4-CCR5 cells up tp 1000 µM”.
LEAIPCSIPPCFAFNKPFVF [DRAVPe00222]: the “cytotoxicity” value in the series with P4-CCR5 cells is “[Ref.17448989]No cytotoxicity against P4-CCR5 cells up tp 1000 µM”.
Consider LEAIPCSIPPCVFFNKPFVF [DRAVPe00221], for which the “cytotoxicity” value in the series with P4-CCR5 cells was “[Ref.17448989]No cytotoxicity against P4-CCR5 cells up tp 1000 µM”.
LEAIPCSIPpCFLFNKPFVF [DRAVPe00227]: the “cytotoxicity” value with P4-CCR5 cells is “[Ref.17448989]No cytotoxicity against P4-CCR5 cells up tp 1000 µM”.
LEAIPMGIPpEVXFNKPFVF [DRAVPe00228]: in the series with P4-CCR5 cells, the “cytotoxicity” value is “[Ref.17448989]No cytotoxicity against P4-CCR5 cells up tp 1000 µM”.
Take LEAIPMSIPPEFLFGKPFVF [DRAVPe00223]: in the series on P4-CCR5 cells, the “cytotoxicity” value was “[Ref.17448989]No cytotoxicity against P4-CCR5 cells up tp 1000 µM”.
Regarding LEAIPMSIPPEVKFNKPFVF [DRAVPe00192], the “cytotoxicity” value with P4-CCR5 cells was “[Ref.17448989]No cytotoxicity against P4-CCR5 cells up tp 1000 µM”.
For “LEANIEELLKKAEEQQKKNEEELKKLEX [DRAVPe00784]”, the CC50 is 434.03 µM in the series with TZM-bl cell and 46.83 µM in the series on PBMC.
Regarding “LFYLVPGPGH [DRAVPe00094, DRAVP database peptide, target HIV-1 integrase]”, in the series on P4 cells, the “decrease of cell viability” value is reported as roughly 5%.
Regarding “LKAKTNISIREGPTLGNWAR [DRAVPe00841, DRAVP database peptide, target FIV]”, the inhibition in [3] was 24%.
As for “LSELDDRADALQAGASQFETSAAKLKRKYWWKN [DRAVPe00111, DRAVP database peptide, target HIV-1 integrase]”, in the series on P4 cells, the “decrease of cell viability” value is given as roughly 5%.
On to “PACQDFLGAMIHLKAKTNISIR [DRAVPe00840, DRAVP database peptide, target FIV]”, for which the inhibition in series [3] is 28%.
Consider “QLLIRMIYKNI [DRAVPe00109, DRAVP database peptide, target HIV-1 integrase]”, for which the “decrease of cell viability” value in the series on P4 cells was roughly 5%.
For “QLLIRMIYKNILFYLVPGPGHGAEPERRNIKYL [DRAVPe00090, DRAVP database peptide, target HIV-1 integrase]”, the “decrease of cell viability” value in the series with P4 cells was roughly 5%.
As to “VALDPIDIAnti-SIVLNKAKSDLEESKEWIRRSNGKLDSIGSGSGC [DRAVPe01791]”, the IC90 in series [4] is 0.28 ± 0.247 µM. In addition, the CC50 result in the series on Vero cells [5] is “[Ref.28344321]Vero cells: CC50>10000 nM”.
As to “VALDPIDIAnti-SIVLNKAKSDLEESKEWIRRSNGKLDSIGSGSGX [DRAVPe01793]”, in series [4], the IC90 is 0.0007 ± 7e-06 µM. For the same substance, in the series on Vero cells [5], the CC50 is 4.5 µM.
Consider “WEQKIEELLKKAEEQQKKNEEELKKLEX [DRAVPe00785]”, for which the CC50 in the series on TZM-bl cell is 112.9 µM; in the series on PBMC it was 114.8 µM.
For the substance “YLDRVDTWLQGKINISLCLT [DRAVPe00846, DRAVP database peptide, target FIV]”, the inhibition in series [3] was 9%.
Turning to “YQALIRMIYKNI [DRAVPe00097, DRAVP database peptide, target HIV-1 integrase]”, the “decrease of cell viability” value with P4 cells was roughly 5%.
As to “YQLAIRMIYKNI [DRAVPe00098, DRAVP database peptide, target HIV-1 integrase]”, in the series on P4 cells, the “decrease of cell viability” value is roughly 5%.
For “YQLLIRMIYANI [DRAVPe00104, DRAVP database peptide, target HIV-1 integrase]”, in the series with P4 cells, the “decrease of cell viability” value is roughly 5%.
“YQLLIRPIYKNI [DRAVPe00110, DRAVP database peptide, target HIV-1 integrase]”: the “decrease of cell viability” value with P4 cells is reported as roughly 5%.
